In patent US11497761B2, “Compositions for the treatment of metastatic cancer” (priority 2019, dated 2022):

Tests used:
[1] = system: primary human T-cell signaling; conditions: in vitro, cited from earlier work
[2] = system: iCTCs from prostate cancer patients; test: iCTC drug response (CDR) testing ex vivo, Project 1 Study-Prostate Cancer; type: cell-based, human; conditions: for number of live iCTCs remaining after treatment: 72 hours
Description: Materials for Project 1 Study-Prostate Cancer • Blood collection tubes: BD Vacutainer® 10 mL sodium heparin tube (BD catalog #367874)). • Vita-Assay™ AN6W plate. • Blood: prostate cancer, up to 40-mL blood was collected from patients and provided by Conversant bio. • Stock Solution and Dilutions • Monolaurin, 4.78 mM with 0.75% PS-80 (Stock Solution C), 13.1 mg monolaurin in 0.25 mL PS-80 and 0.75 mL water and 0.1 mL of this solution was diluted with 0.9 mL of RPMI. Stock solutions were stable for 2 weeks at 4 degrees C. Monolaurin used is an equal mixture of 1-, 2-, and 3-isomers of monolaurin. • Dilution: Monolaurin: Add 209.2 uL, 627.6 uL, and 1.2552 mL of CPI-2400 in 0.75% PS-80 (Stock solution C) and dilute to 10 mL of media to achieve final concentrations of 100 uM, 200 uM, and 300 uM final concentrations of drug cell exposure respectively.
With respect to FIG. 1, a depiction of a generalized experimental scheme for testing efficacy of a composition in accordance with an exemplary embodiment of the present invention against iCTC from the blood of prostate cancer patients is shown. Invasive circulating tumor cells (iCTCs) were obtained from venous blood of the individual with advanced prostate cancer, cultured and exposed to a specific drug or battery of drugs at 1×, 2×, and 3× concentrations in vitro for 3 days. Drug responsiveness was measured by automatic flow cytometry using the reduction of live iCTCs in the treated samples from the number of live iCTCs in the untreated controls. The greater the reduction of iCTCs of a given drug at a given dose indicates greater responsiveness to that dose of the drug. Four AN6W plates were used for each sample. Control and drug at each dose in triplicate were incubated for 72 hours. The iCTCs were measured by flow cytometry and viewed by microscopy as described. The complete culture medium contains 10% fetal bovine serum.
The complete experimental procedure for The Project 1 Study-Prostate Cancer followed the same procedure as that used with respect to The Project 1 Study-Pancreatic Cancer. With reference to FIGS. 5 and 6, flow cytometry evaluation: Count tumor cells and immune cells by using a 4-channel (FITC, PE, APC, and 7AAD) flow cytometer. iCTC is defined as: EPI^+TP^+CD45^−[…] • FIG. 5 depicts images of solitary and clustered iCTCs with specific markers in a cytospin preparation of the RP-19 sample. […] Pink arrows indicated iCTC clusters. A tumor cell was positively stained with green fluorescence-epithelial marker (GF-Epi), blue fluorescence nucleic acid dye (BF-Hoechst) and red fluorescence tumor progenitor (TP) marker (RF-TP). White arrows indicate WBCs that were not stained by Epi and TP tumor markers. Bar=40 μm. Cells from RP-19 were cultured for 3 days before staining.

[3] = Stability of monolaurin stock solution; type: physicochemical; conditions: 4.78 mM with 0.75% PS-80 (Stock Solution C), 4 degrees C
Description: Materials for Project 1 Study-Pancreatic Cancer • Blood collection tubes: BD Vacutainer® 10 mL sodium heparin tube (BD catalog #367874)). • Vita-Assay™ AN6W plate. • Blood: pancreatic cancer, up to 40-mL blood collected from patients and provided by Conversant Bio. • Stock solution and dilutions • Monolaurin 4.78 mM with 0.75% PS-80 (Stock Solution C), 13.1 mg monolaurin in 0.25 mL PS-80 and 0.75 mL water and 0.1 mL of this solution was diluted with 0.9 mL of RPMI. Stocks are stable for 2 weeks at 4 degrees C. Monolaurin used is an equal mixture of 1-, 2-, and 3-isomers of monolaurin. • Monolaurin dilution: add 209.2 uL, 627.6 uL, and 1.2552 mL of monolaurin in 0.75% PS-80 (Stock solution C), and dilute to 10 mL of media to achieve final concentrations of 100 uM, 200 uM, 300 uM as indicated.
Materials for Project 1 Study-Prostate Cancer • Blood collection tubes: BD Vacutainer® 10 mL sodium heparin tube (BD catalog #367874)). • Vita-Assay™ AN6W plate. • Blood: prostate cancer, up to 40-mL blood was collected from patients and provided by Conversant bio. • Stock Solution and Dilutions • Monolaurin, 4.78 mM with 0.75% PS-80 (Stock Solution C), 13.1 mg monolaurin in 0.25 mL PS-80 and 0.75 mL water and 0.1 mL of this solution was diluted with 0.9 mL of RPMI. Stock solutions were stable for 2 weeks at 4 degrees C. […]

[4] = system: Ehrlich ascites tumor cells; conditions: in vitro, Kato et al. 1971; cited from earlier work

## CCCCCCCCCCCC(=O)OCC(O)CO (stereo not drawn) [Monolaurin, glycerol monolaurate]
[1]; formulated in 95% ethanol
  concentration interfering with activated T cell adhesion and actin organization: 10 to 20 µg/mL
  concentration interfering with activated T cell adhesion and actin organization (equivalent): 36 to 73 µM
[1]
  concentrations inhibiting primary human T-cell signaling: 36 to 73 µM
[2]; iCTCs from prostate cancer patients
  kill rates of iCTCs (summary): high kill rates
[2]; patient RP02 (Taxotere), iCTC control 450, 100 uM monolaurin
  number of live iCTCs remaining after treatment: 0
[2]; patient RP02 (Taxotere), iCTC control 450, 200 uM monolaurin
  number of live iCTCs remaining after treatment: 0
[2]; patient RP02 (Taxotere), iCTC control 450, 300 uM monolaurin
  number of live iCTCs remaining after treatment: 0
[2]; patient RP06 (Taxotere), iCTC control 40, 100 uM monolaurin
  number of live iCTCs remaining after treatment: 10
[2]; patient RP06 (Taxotere), iCTC control 40, 200 uM monolaurin
  number of live iCTCs remaining after treatment: 0
[2]; patient RP06 (Taxotere), iCTC control 40, 300 uM monolaurin
  number of live iCTCs remaining after treatment: 0
[2]; patient RP07 (Taxotere), iCTC control 200, 100 uM monolaurin
  number of live iCTCs remaining after treatment: 0
[2]; patient RP07 (Taxotere), iCTC control 200, 200 uM monolaurin
  number of live iCTCs remaining after treatment: 0
[2]; patient RP07 (Taxotere), iCTC control 200, 300 uM monolaurin
  number of live iCTCs remaining after treatment: 0
[2]; patient RP08 (Taxotere), iCTC control 60, 100 uM monolaurin
  number of live iCTCs remaining after treatment: 0
[2]; patient RP08 (Taxotere), iCTC control 60, 200 uM monolaurin
  number of live iCTCs remaining after treatment: 0
[2]; patient RP08 (Taxotere), iCTC control 60, 300 uM monolaurin
  number of live iCTCs remaining after treatment: 0
[2]; patient RP09 (Taxotere), iCTC control 225, 100 uM monolaurin
  number of live iCTCs remaining after treatment: 0
[2]; patient RP09 (Taxotere), iCTC control 225, 200 uM monolaurin
  number of live iCTCs remaining after treatment: 0
[2]; patient RP09 (Taxotere), iCTC control 225, 300 uM monolaurin
  number of live iCTCs remaining after treatment: 0
[2]; patient RP13 (Taxotere), iCTC control 75, 100 uM monolaurin
  number of live iCTCs remaining after treatment: 0
[2]; patient RP13 (Taxotere), iCTC control 75, 200 uM monolaurin
  number of live iCTCs remaining after treatment: 0
[2]; patient RP13 (Taxotere), iCTC control 75, 300 uM monolaurin
  number of live iCTCs remaining after treatment: 0
[2]; patient RP15 (Taxotere), iCTC control 50, 100 uM monolaurin
  number of live iCTCs remaining after treatment: 20
[2]; patient RP15 (Taxotere), iCTC control 50, 200 uM monolaurin
  number of live iCTCs remaining after treatment: 10
[2]; patient RP15 (Taxotere), iCTC control 50, 300 uM monolaurin
  number of live iCTCs remaining after treatment: 0
[2]; patient RP19 (Taxotere), iCTC control 425, 100 uM monolaurin
  number of live iCTCs remaining after treatment: 50
[2]; patient RP19 (Taxotere), iCTC control 425, 200 uM monolaurin
  number of live iCTCs remaining after treatment: 50
[2]; patient RP19 (Taxotere), iCTC control 425, 300 uM monolaurin
  number of live iCTCs remaining after treatment: 0
[2]; patient RP20 (Taxotere), iCTC control 50, 100 uM monolaurin
  number of live iCTCs remaining after treatment: 20
[2]; patient RP20 (Taxotere), iCTC control 50, 200 uM monolaurin
  number of live iCTCs remaining after treatment: 10
[2]; patient RP20 (Taxotere), iCTC control 50, 300 uM monolaurin
  number of live iCTCs remaining after treatment: 5
[2]; patient RP212 (Taxotere), iCTC control 55, 100 uM monolaurin
  number of live iCTCs remaining after treatment: 30
[2]; patient RP212 (Taxotere), iCTC control 55, 200 uM monolaurin
  number of live iCTCs remaining after treatment: 10
[2]; patient RP212 (Taxotere), iCTC control 55, 300 uM monolaurin
  number of live iCTCs remaining after treatment: 10
[2]; patient Rp05 (Taxotere), iCTC control 20, 100 uM monolaurin
  number of live iCTCs remaining after treatment: 15
[2]; patient Rp05 (Taxotere), iCTC control 20, 200 uM monolaurin
  number of live iCTCs remaining after treatment: 0
[2]; patient Rp05 (Taxotere), iCTC control 20, 300 uM monolaurin
  number of live iCTCs remaining after treatment: 0
[3]
  stock solution stable for: 2 weeks
[4]
  anticancer activity: only weak activity
